Results as given in patent publication US20060069132A1, “Azolecarboxamide herbicides” (priority 2004, published 2006).
Read-outs that look alike come from different tables or passages of the source.

Experiments:
barnyardgrass = experiment: Test A pre-/postemergence herbicide test; assay type: in vivo, Echinochloa crus-galli; details: for pest or weed control at 500 g/ha / pest or weed control at 2000 g/ha: Echinochloa crus-galli, 240 h
Outline: (§1)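 Plants are held in greenhouse about ten days after treatment, then compared with untreated controls and scored 0 (no effect) to 100 (complete control). Preemergence dosing is a directed soil spray on sown sandy loam; postemergence dosing is spray to runoff at 2–10 cm height.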

morningglory = experiment: Test A pre-/postemergence herbicide test; assay type: in vivo, Ipomoea spp.; details: for pest or weed control at 500 g/ha / pest or weed control at 2000 g/ha: Ipomoea, 240 h
Outline: as §1

redroot pigweed = experiment: Test A pre-/postemergence herbicide test; assay type: in vivo, Amaranthus retroflexus; details: for pest or weed control at 500 g/ha / pest or weed control at 2000 g/ha: Amaranthus retroflexus, 240 h
Outline: as §1

bermudagrass = experiment: Test C pre-/postemergence herbicide test; assay type: in vivo, Cynodon dactylon; details: for Plant response rating (0 = no effect, 100 = complete control), Bermudagrass: 62 g ai/ha; for Plant response rating (0 = no effect, 100 = complete control), Bermudagrass / Plant response rating, Bermudagrass: preemergence
Outline: (§2)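 Greenhouse-grown plants were evaluated visually 12 to 14 days after treatment, with 100 meaning complete control and 0 no effect. Application was preemergence, or postemergence at 2 to 18 cm.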

large crabgrass = experiment: Test C pre-/postemergence herbicide test; assay type: in vivo, Digitaria sanguinalis; details: for Plant response rating (0 = no effect, 100 = complete control), Crabgrass, Large: 62 g ai/ha; for Plant response rating (0 = no effect, 100 = complete control), Crabgrass, Large / Plant response rating, Crabgrass, Large: preemergence; for Crabgrass, Large plant response rating: Preemergence, 500 g ai/ha, scale 0 to 100, 0 no effect, 100 complete control
Outline: as §2

eastern black nightshade = experiment: Test C pre-/postemergence herbicide test; assay type: in vivo, Solanum ptycanthum; details: for Plant response rating (0 = no effect, 100 = complete control), Nightshade: 62 g ai/ha; for Nightshade plant response rating: Preemergence, 500 g ai/ha, scale 0 to 100, 0 no effect, 100 complete control
Outline: as §2

velvetleaf = experiment: Test C pre-/postemergence herbicide test; assay type: in vivo, Abutilon theophrasti; details: for Velvetleaf plant response rating: Preemergence, 500 g ai/ha, scale 0 to 100, 0 no effect, 100 complete control
Outline: as §2

ducksalad = experiment: Test C flooded paddy test; assay type: in vivo, Heteranthera limosa
[1] = Postemergence, 500 g ai/ha, 0 to 100 scale, 0 no effect, 100 complete control
[2] = Postemergence, 2000 g ai/ha, 0 to 100 scale, 0 no effect, 100 complete control
[3] = Preemergence, 500 g ai/ha, visual rating, 0 to 100 scale (0 no effect, 100 complete control)
[4] = Preemergence, 2000 g ai/ha, 0 to 100 scale, 0 no effect, 100 complete control
[5] = 125 g ai/ha, scale 0 (no effect) to 100 (complete control), visual, 12 to 14 days
[6] = 250 g ai/ha, scale 0 to 100 (0 no effect, 100 complete control), visual, 12 to 14 days
[7] = 125 g ai/ha, scale 0 (no effect) to 100 (complete control), visual, 12 to 14 days, preemergence

CCn1nc(C(C)(C)C)cc1C(=O)Nc1cccc2c1CN(C)C2=O [Compound 55, N-(2,3-dihydro-2-methyl-1-oxo-1H-isoindol-4-yl)-3-(1,1-dimethylethyl)-1-ethyl-1H-pyrazole-5-carboxamide]
pest or weed control at 500 g/ha (barnyardgrass; post-emergence, Postemergence, 500 g ai/ha, 0 to 100 scale, 0 no effect, 100 complete control, read-out: Plant response rating, Barnyardgrass): 90%
pest or weed control at 2000 g/ha (barnyardgrass; post-emergence, Postemergence, 2000 g ai/ha, 0 to 100 scale, 0 no effect, 100 complete control, read-out: Plant response rating, Barnyardgrass): 100%
pest or weed control at 500 g/ha (barnyardgrass; pre-emergence, Preemergence, 500 g ai/ha, visual rating, 0 to 100 scale (0 no effect, 100 complete control), read-out: Barnyardgrass plant response rating): 80%
pest or weed control at 2000 g/ha (barnyardgrass; pre-emergence, Preemergence, 2000 g ai/ha, 0 to 100 scale, 0 no effect, 100 complete control, read-out: Barnyardgrass plant response rating): 95%
pest or weed control at 500 g/ha (morningglory; post-emergence, Postemergence, 500 g ai/ha, 0 to 100 scale, 0 no effect, 100 complete control, read-out: Plant response rating, Morningglory): 20%
pest or weed control at 2000 g/ha (morningglory; post-emergence, Postemergence, 2000 g ai/ha, 0 to 100 scale, 0 no effect, 100 complete control, read-out: Plant response rating, Morningglory): 25%
pest or weed control at 500 g/ha (morningglory; pre-emergence, Preemergence, 500 g ai/ha, visual rating, 0 to 100 scale (0 no effect, 100 complete control), read-out: Morningglory plant response rating): 5%
pest or weed control at 2000 g/ha (morningglory; pre-emergence, Preemergence, 2000 g ai/ha, 0 to 100 scale, 0 no effect, 100 complete control, read-out: Morningglory plant response rating): 20%
pest or weed control at 500 g/ha (redroot pigweed; post-emergence, Postemergence, 500 g ai/ha, 0 to 100 scale, 0 no effect, 100 complete control, read-out: Plant response rating, Pigweed): 90%
pest or weed control at 2000 g/ha (redroot pigweed; post-emergence, Postemergence, 2000 g ai/ha, 0 to 100 scale, 0 no effect, 100 complete control, read-out: Plant response rating, Pigweed): 100%
pest or weed control at 500 g/ha (redroot pigweed; pre-emergence, Preemergence, 500 g ai/ha, visual rating, 0 to 100 scale (0 no effect, 100 complete control), read-out: Pigweed plant response rating): 100%
pest or weed control at 2000 g/ha (redroot pigweed; pre-emergence, Preemergence, 2000 g ai/ha, 0 to 100 scale, 0 no effect, 100 complete control, read-out: Pigweed plant response rating): 100%
Plant response rating (0 = no effect, 100 = complete control), Bermudagrass (bermudagrass): 60
pest or weed control at 125 g/ha (bermudagrass; Cynodon dactylon, pre-emergence, 312 h, 125 g ai/ha, scale 0 (no effect) to 100 (complete control), visual, 12 to 14 days, read-out: Plant response rating, Bermudagrass): 100%
pest or weed control at 250 g/ha (bermudagrass; Cynodon dactylon, pre-emergence, 312 h, 250 g ai/ha, scale 0 to 100 (0 no effect, 100 complete control), visual, 12 to 14 days, read-out: Plant response rating, Bermudagrass): 100%
pest or weed control at 500 g/ha (bermudagrass; Cynodon dactylon, pre-emergence, 312 h, Preemergence, 500 g ai/ha, scale 0 to 100, 0 no effect, 100 complete control, read-out: Bermudagrass plant response rating): 100%
Plant response rating (0 = no effect, 100 = complete control), Crabgrass, Large (large crabgrass): 15
pest or weed control at 125 g/ha (large crabgrass; Digitaria sanguinalis, pre-emergence, 312 h, 125 g ai/ha, scale 0 (no effect) to 100 (complete control), visual, 12 to 14 days, read-out: Plant response rating, Crabgrass, Large): 90%
pest or weed control at 250 g/ha (large crabgrass; Digitaria sanguinalis, pre-emergence, 312 h, 250 g ai/ha, scale 0 to 100 (0 no effect, 100 complete control), visual, 12 to 14 days, read-out: Plant response rating, Crabgrass, Large): 95%
Crabgrass, Large plant response rating (large crabgrass): 100
Plant response rating (0 = no effect, 100 = complete control), Nightshade (eastern black nightshade; preemergence): 15
Nightshade plant response rating (eastern black nightshade): 95
pest or weed control at 125 g/ha (eastern black nightshade; pre-emergence, 125 g ai/ha, scale 0 (no effect) to 100 (complete control), visual, 12 to 14 days, read-out: Plant response rating, Nightshade): 60%
pest or weed control at 250 g/ha (eastern black nightshade; pre-emergence, 250 g ai/ha, scale 0 to 100 (0 no effect, 100 complete control), visual, 12 to 14 days, read-out: Plant response rating, Nightshade): 90%
Plant response rating (0 = no effect, 100 = complete control), Velvetleaf (velvetleaf; 62 g ai/ha, preemergence): 0
pest or weed control at 125 g/ha (velvetleaf; Abutilon theophrasti, pre-emergence, 125 g ai/ha, scale 0 (no effect) to 100 (complete control), visual, 12 to 14 days, read-out: Plant response rating, Velvetleaf): 0%
pest or weed control at 250 g/ha (velvetleaf; Abutilon theophrasti, pre-emergence, 250 g ai/ha, scale 0 to 100 (0 no effect, 100 complete control), visual, 12 to 14 days, read-out: Plant response rating, Velvetleaf): 15%
Velvetleaf plant response rating (velvetleaf): 100
pest or weed control at 62 g/ha (ducksalad; Heteranthera limosa, 62 g ai/ha, scale 0 to 100 (0 no effect, 100 complete control), read-out: Ducksalad plant response rating): 0%
pest or weed control at 125 g/ha (ducksalad; Heteranthera limosa, 125 g ai/ha, scale of 0 to 100, 0 is no effect, 100 is complete control, read-out: Ducksalad plant response rating): 0%
pest or weed control at 250 g/ha (ducksalad; Heteranthera limosa, 250 g ai/ha, scale of 0 to 100, 0 is no effect, 100 is complete control, read-out: Ducksalad plant response rating): 55%
pest or weed control at 500 g/ha (ducksalad; Heteranthera limosa, 500 g ai/ha, visual rating after 12 to 14 days, scale 0 to 100 (0 no effect, 100 complete control), read-out: Plant response rating, Ducksalad): 80%

CCn1nc(C(C)(C)C)cc1C(=O)Nc1cccc2c1CCN(C1CC1)C2=O [Compound 64]
Plant response rating, Barnyardgrass (barnyardgrass; [1]): 30
Plant response rating, Barnyardgrass (barnyardgrass; [2]): 75
Barnyardgrass plant response rating (barnyardgrass; [3]): 55
Barnyardgrass plant response rating (barnyardgrass; [4]): 85
Plant response rating, Morningglory (morningglory; [1]): 10
Plant response rating, Morningglory (morningglory; [2]): 10
Morningglory plant response rating (morningglory; [3]): 0
Morningglory plant response rating (morningglory; [4]): 5
Plant response rating, Pigweed (redroot pigweed; [1]): 65
Plant response rating, Pigweed (redroot pigweed; [2]): 95
Pigweed plant response rating (redroot pigweed; [3]): 100
Pigweed plant response rating (redroot pigweed; [4]): 100
Plant response rating (0 = no effect, 100 = complete control), Bermudagrass (bermudagrass): 0
Plant response rating, Bermudagrass (bermudagrass; [5]): 30
Plant response rating, Bermudagrass (bermudagrass; [6]): 85
Bermudagrass plant response rating (bermudagrass; Preemergence, 500 g ai/ha, scale 0 to 100, 0 no effect, 100 complete control): 90
Plant response rating (0 = no effect, 100 = complete control), Crabgrass, Large (large crabgrass): 0
Plant response rating, Crabgrass, Large (large crabgrass; [5]): 40
Plant response rating, Crabgrass, Large (large crabgrass; [6]): 70
Crabgrass, Large plant response rating (large crabgrass): 90
Plant response rating (0 = no effect, 100 = complete control), Nightshade (eastern black nightshade; preemergence): 0
Plant response rating, Nightshade (eastern black nightshade; [7]): 50
Nightshade plant response rating (eastern black nightshade): 95
Plant response rating, Velvetleaf (velvetleaf; [7]): 30
Velvetleaf plant response rating (velvetleaf): 60
Ducksalad plant response rating (ducksalad; 62 g ai/ha, scale 0 to 100 (0 no effect, 100 complete control)): 0
Ducksalad plant response rating (ducksalad; 125 g ai/ha, scale of 0 to 100, 0 is no effect, 100 is complete control): 10
Ducksalad plant response rating (ducksalad; 250 g ai/ha, scale of 0 to 100, 0 is no effect, 100 is complete control): 25
Plant response rating, Ducksalad (ducksalad; 500 g ai/ha, visual rating after 12 to 14 days, scale 0 to 100 (0 no effect, 100 complete control)): 40
